Consider 13 molecules from US20220211692A1, “Modulators of the Cystic Fibrosis Transmembrane Conductance Regulator Protein and Methods of Use” (AbbVie Global Enterprises Ltd., priority 2021, published 2022).

A word on the EC50: it is the midpoint of the concentration-response curve.

Assay [1] has as its target T1, F508del/F508del CFTR (Homo sapiens, UniProt P13569, DEL508-508).
T1 construct: cells isolated from CF patients with the homozygous mutation; endogenous in cells; host or cells: primary human bronchial epithelial (hBE) cells from CF patients homozygous for F508del
The assay is described as follows: Trans-Epithelial Current Clamp (TECC) assay using primary human bronchial epithelial cells. The assay is classed as cell-based. The following applies: for Emax (% Dual): maximum percent activity relative to positive control (co-corrector 0.15 μM + potentiator 0.45 μM = 100%); for EC50: primary hBE cells F508del/F508del, test corrector with co-corrector and potentiator, 18-24 hours, equivalent CFTR current. A digest of the protocol: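 Readout is the equivalent CFTR current (IEQ, from offset-corrected VT and RT) plus AUC from forskolin peak to bumetanide addition, recorded on TECC-24 at 36.5° C. Beforehand, homozygous F508del hBE cultures received correctors with co-corrector and potentiator basolaterally for 18-24 h at 37° C.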

For assay [2], the target named is T2, F508delCFTR (Homo sapiens, UniProt P13569, DEL508-508).
T2 construct: expressed in transfected cells; host or cells: CFBE41o- human lung derived epithelial cell line, doxycycline-induced expression
The assay is described as follows: Cell Surface Expression-Horse Radish Peroxidase (CSE-HRP) assay in CFBE41o-F508delCFTR-HRP cells. The format is cell-based. The following applies: for EC50: CFBE41o-F508delCFTR-HRP cells, 18-24 hours at 33° C.; for Emax / Maximum % activity (with co-corrector): normalized to on-plate positive control; for Emax: read-out: Maximum % activity (without co-corrector). The method, then: A cellular assay for measuring the F508delCFTR cell surface expression after correction with test compounds either without or with a co-corrector (2 μM of 3-[(2R,4R)-4-({[1-(2,2-difluoro-1,3-benzodioxol-5-yl)cyclopropyl]carbonyl}amino)-7-methoxy-3,4-dihydro-2H-chromen-2-yl]benzoic acid), was developed in human lung derived epithelial cell line (CFBE41o-) (Veit G et al, (2012) Mol Biol Cell. 23(21): 4188-4202). The development was achieved by expressing the F508delCFTR mutation along with a horseradish peroxidase (HRP) in the fourth exofacial loop, and then measuring the HRP activity using luminescence readout from these cells, CFBE41o-F508delCFTR-HIRP, that were incubated overnight with the test corrector compounds, either without or with the co-corrector. For this primary assay, the CFBE41o-F508delCFTR-HRP cells were plated in 384-well plates (Greiner Bio-one; Cat 781080) at 4,000 cells/well along with 0.5 μg/mL doxycycline to induce the F508delCFTR-HRP expression and further incubated at 37° C., […] for 68-72 hours. The test compounds were then added either without or with a co-corrector at the required concentrations and further incubated for 18-24 hours at 33° C. The highest concentration tested was 20 μM or 30 μM (GI-1 to GIII-36) with an 8-point concentration response curve using a 3-fold dilution in both the test compound without or with the co-corrector. Three replicate plates were run to determine one EC50. All plates contained negative controls (dimethyl sulfoxide, DMSO) and positive control (2 μM or 3 μM (GI-1 to GIII-36) of 3-[(2R,4R)-4-({[1-(2,2-difluoro-1,3-benzodioxol-5-yl)cyclopropyl]carbonyl}amino)-7-methoxy-3,4-dihydro-2H-chromen-2-yl]benzoic acid) as well as on-plate concentration response of the positive control. Post incubation, the plates were washed 5× times with Dulbecco's phosphate buffered saline (DPBS), followed by the addition of the HRP substrate, luminol (50 μL), and measuring the HRP activity using luminescence readout on EnVision® Multilabel Plate Reader (Perkin Elmer; product number 2104-0010). The raw counts from the experiment were analyzed using Accelrys® Assay Explorer v3.3.
Z′ greater than 0.5 was used as passing quality control criteria for the plates. The Z′ is defined as:
1−[3*SDPositive Control+3*SDNegative Control/Absolute(MeanPositive Control−MeanNegative Control)]
The % activity measured at each of the 8 test concentrations of the test compound added either without or with a co-corrector (2 μM or 3 μM (GI-1 to GIII-36) of 3-[(2R,4R)-4-({[1-(2,2-difluoro-1,3-benzodioxol-5-yl)cyclopropyl]carbonyl}amino)-7-methoxy-3,4-dihydro-2H-chromen-2-yl]benzoic acid) was normalized to the on-plate positive control using the following formulae:
% activity (Test compound without co-corrector)=[(test compound without co-corrector response−DMSO response)/(positive control response−DMSO response)]*100
% activity (Test compound with co-corrector)=[(test compound with co-corrector response−DMSO response)/(positive control response−DMSO response)]*100
The maximum % activity achieved for the test compound either without or with a co-corrector at any tested concentration is presented in Table 3 along with the respective EC50's calculated using the following general sigmoidal curve with variable Hill slope equation (described as Model 42 in the Accelrys® Assay Explorer v3.3 software):
General sigmoidal curve with concentration, response, top, bottom, EC50 and Hill slope. This model describes a sigmoidal curve with an adjustable baseline, a. The equation can be used to fit curves where response is either increasing or decreasing with respect to the independent variable, “x”.

The mark [3] stands for this setting: with co-corrector 2 μM, read-out: EC50 (with co-corrector).
The mark [4] stands for this setting: without co-corrector, read-out: EC50 (without co-corrector).

Read-outs that look alike come from different tables or passages of the source.

T1 sequence (P13569 with tags, fused parts or gaps DEL508-508): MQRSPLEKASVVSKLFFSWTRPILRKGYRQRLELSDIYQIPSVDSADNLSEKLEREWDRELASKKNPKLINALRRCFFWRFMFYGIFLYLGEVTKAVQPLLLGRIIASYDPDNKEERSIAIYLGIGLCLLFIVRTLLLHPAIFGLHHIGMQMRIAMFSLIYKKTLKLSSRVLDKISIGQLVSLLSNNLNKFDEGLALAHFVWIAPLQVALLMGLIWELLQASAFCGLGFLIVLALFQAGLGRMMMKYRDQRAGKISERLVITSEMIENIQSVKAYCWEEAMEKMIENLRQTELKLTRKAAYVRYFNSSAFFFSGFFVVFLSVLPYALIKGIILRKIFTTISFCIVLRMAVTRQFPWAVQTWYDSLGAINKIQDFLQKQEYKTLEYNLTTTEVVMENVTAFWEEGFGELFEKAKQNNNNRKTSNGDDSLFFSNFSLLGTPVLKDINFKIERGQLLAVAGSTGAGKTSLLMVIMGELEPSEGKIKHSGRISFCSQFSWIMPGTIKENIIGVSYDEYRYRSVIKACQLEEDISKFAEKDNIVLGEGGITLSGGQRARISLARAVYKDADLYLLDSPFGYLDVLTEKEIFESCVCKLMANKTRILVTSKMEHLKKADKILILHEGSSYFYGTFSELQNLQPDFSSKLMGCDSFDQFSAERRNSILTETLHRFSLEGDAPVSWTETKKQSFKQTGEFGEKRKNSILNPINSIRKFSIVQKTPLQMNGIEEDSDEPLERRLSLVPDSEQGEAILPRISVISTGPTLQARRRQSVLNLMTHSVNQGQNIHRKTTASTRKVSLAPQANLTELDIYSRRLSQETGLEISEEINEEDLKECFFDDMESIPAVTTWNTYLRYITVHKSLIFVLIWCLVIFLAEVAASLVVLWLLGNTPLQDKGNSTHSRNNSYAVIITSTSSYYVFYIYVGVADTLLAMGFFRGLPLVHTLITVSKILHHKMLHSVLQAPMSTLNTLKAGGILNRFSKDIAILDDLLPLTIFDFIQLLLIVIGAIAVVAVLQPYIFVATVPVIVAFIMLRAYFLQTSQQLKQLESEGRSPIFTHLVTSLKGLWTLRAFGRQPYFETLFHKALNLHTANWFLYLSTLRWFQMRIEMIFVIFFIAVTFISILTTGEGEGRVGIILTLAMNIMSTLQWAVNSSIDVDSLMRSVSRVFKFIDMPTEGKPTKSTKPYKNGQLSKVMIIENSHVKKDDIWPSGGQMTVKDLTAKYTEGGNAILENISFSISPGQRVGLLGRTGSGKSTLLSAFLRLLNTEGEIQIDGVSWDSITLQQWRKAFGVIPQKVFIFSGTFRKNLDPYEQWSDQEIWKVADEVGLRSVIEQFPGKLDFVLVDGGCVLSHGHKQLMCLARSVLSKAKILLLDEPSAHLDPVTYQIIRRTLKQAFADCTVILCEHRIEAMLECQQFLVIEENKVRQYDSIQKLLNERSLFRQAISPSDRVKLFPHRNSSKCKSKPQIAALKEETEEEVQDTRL
T2 sequence (P13569 with tags, fused parts or gaps DEL508-508): as above

For `CCc1ccc(Oc2ccccc2)c([C@@]2(C(=O)NS(=O)(=O)c3cccc4nc(C)ccc34)CCCO2)c1` [Example 23, (2R)-2-(5-ethyl-2-phenoxyphenyl)-N-(2-methylquinoline-5-sulfonyl)oxolane-2-carboxamide], the “Emax (% Dual)” value in assay [1] is listed as 241 % Dual. Besides, the EC50 in assay [1] came out at 20 nM; in assay [2] (setting [3]) it was 480 nM; in assay [2] (setting [4]), 1070 nM. Also, the Emax in assay [2] (without co-corrector) worked out at 726%.

For the molecule `CCc1ccc(Oc2cccnc2OC)c([C@]2(C(=O)NS(=O)(=O)c3cccc4nc(C)ccc34)CCCO2)c1` [Example 24, (2S)-2-{5-ethyl-2-[(2-methoxypyridin-3-yl)oxy]phenyl}-N-(2-methylquinoline-5-sulfonyl)oxolane-2-carboxamide], the “Emax (% Dual)” value in assay [1] turned out to be 167 % Dual. In addition, the EC50 in assay [1] is above 800 nM; in assay [2] (setting [3]) it was 2520 nM; in assay [2] (setting [4]), 3630 nM. Besides, the “Maximum % activity (with co-corrector)” value in assay [2] (with co-corrector 2 μM) amounted to 449%. The Emax in assay [2] (without co-corrector) amounted to 141%.

`CCc1ccc(Oc2cccnc2OC)c([C@@]2(C(=O)NS(=O)(=O)c3cccc4nc(C)ccc34)CCCO2)c1` [Example 25, (2R)-2-{5-ethyl-2-[(2-methoxypyridin-3-yl)oxy]phenyl}-N-(2-methylquinoline-5-sulfonyl)oxolane-2-carboxamide]: the “Emax (% Dual)” value in assay [1] is recorded as 279 % Dual. The EC50 in assay [1] stood at 30.6 nM; in assay [2] (setting [3]) it was 580 nM; in assay [2] (setting [4]) it was 1450 nM. The “Maximum % activity (with co-corrector)” value in assay [2] (with co-corrector 2 μM) is 954%. In addition, the Emax in assay [2] (without co-corrector) came out at 476%.

Consider `CCc1ccc(Oc2cccnc2OC(F)F)c([C@]2(C(=O)NS(=O)(=O)c3cccc4nc(C)ccc34)CCCO2)c1` [Example 26, (2S)-2-(2-{[2-(difluoromethoxy)pyridin-3-yl]oxy}-5-ethylphenyl)-N-(2-methylquinoline-5-sulfonyl)oxolane-2-carboxamide], for which, in assay [1], the “Emax (% Dual)” value was found to be 130 % Dual. Also, the values for the EC50 in assay [1], in assay [2] (setting [3]) and in assay [2] (setting [4]) were 171 nM, 3270 nM and 3970 nM, respectively. Also, the “Maximum % activity (with co-corrector)” value in assay [2] (with co-corrector 2 μM) is recorded as 828%. The Emax in assay [2] (without co-corrector) is 282%.

For the molecule `CCc1ccc(Oc2cccnc2OC(F)F)c([C@@]2(C(=O)NS(=O)(=O)c3cccc4nc(C)ccc34)CCCO2)c1` [Example 27, (2R)-2-(2-{[2-(difluoromethoxy)pyridin-3-yl]oxy}-5-ethylphenyl)-N-(2-methylquinoline-5-sulfonyl)oxolane-2-carboxamide], the “Emax (% Dual)” value in assay [1] was 212 % Dual. In addition, the figures for the EC50 in assay [1], in assay [2] (setting [3]) and in assay [2] (setting [4]) were 4.6 nM, 650 nM and 1470 nM, respectively. For the same molecule, in assay [2] (without co-corrector), the Emax is 709%.

For the molecule `COc1ccc(C)cc1[C@@]1(C(=O)NS(=O)(=O)c2cccc3nc(C)ccc23)C[C@H](OC)CO1` [Example 28, (2R,4S)-4-methoxy-2-(2-methoxy-5-methylphenyl)-N-(2-methylquinoline-5-sulfonyl)oxolane-2-carboxamide], the “Emax (% Dual)” value in assay [1] came out at 182 % Dual. Moreover, the concentration giving a half-maximal response (EC50) was found to be 1100 nM in assay [1], 3470 nM in assay [2] (setting [3]) and 4110 nM in assay [2] (setting [4]). The “Maximum % activity (with co-corrector)” value in assay [2] (with co-corrector 2 μM) stood at 513%. Besides, the Emax in assay [2] (without co-corrector) amounted to 180%.

In the case of `COc1ccc(C)cc1[C@@]1(C(=O)NS(=O)(=O)c2cccc3nc(C)ccc23)C[C@@H](OC)CO1` [Example 29, (2R,4R)-4-methoxy-2-(2-methoxy-5-methylphenyl)-N-(2-methylquinoline-5-sulfonyl)oxolane-2-carboxamide], the “Emax (% Dual)” value in assay [1] stood at 230 % Dual. Further, the results for the concentration for a half-maximal effect (EC50) in assay [1], in assay [2] (setting [3]) and in assay [2] (setting [4]) were 164 nM, 1210 nM and 1860 nM, respectively. Also, the “Maximum % activity (with co-corrector)” value in assay [2] (with co-corrector 2 μM) was 587%. Moreover, the Emax in assay [2] (without co-corrector) was found to be 213%.

As to `COc1ccc(C)cc1[C@@]1(C(=O)NS(=O)(=O)c2cccc3nc(C)ccc23)C[C@](C)(OC)CO1` [Example 30, (2R,4S)-4-methoxy-2-(2-methoxy-5-methylphenyl)-4-methyl-N-(2-methylquinoline-5-sulfonyl)oxolane-2-carboxamide], in assay [1], the “Emax (% Dual)” value is listed as 197 % Dual and the EC50 is 331 nM. Besides, the EC50 in assay [2] (setting [4]) was 2630 nM. Also, in assay [2] (without co-corrector), the Emax came to 301%.

For the molecule `COc1ccc(C)cc1[C@]1(C(=O)NS(=O)(=O)c2cccc3nc(C)ccc23)C[C@@](C)(OC)CO1` [Example 31, (2S,4R)-4-methoxy-2-(2-methoxy-5-methylphenyl)-4-methyl-N-(2-methylquinoline-5-sulfonyl)oxolane-2-carboxamide], in assay [1], the “Emax (% Dual)” value is reported as 117 % Dual and the EC50 was above 5000 nM. In addition, in assay [2] (setting [4]), the EC50 stood at 5160 nM. Besides, in assay [2] (without co-corrector), the Emax was found to be 100%.

Take `COc1ccc(C)cc1[C@@]1(C(=O)NS(=O)(=O)c2cccc3nc(C)ccc23)C[C@H](c2ccccc2)CO1` [Example 33, (2R,4R)-2-(2-methoxy-5-methylphenyl)-N-(2-methylquinoline-5-sulfonyl)-4-phenyloxolane-2-carboxamide]: in assay [1], the “Emax (% Dual)” value was determined as 264 % Dual. The EC50 stood at 20.1 nM in assay [1], 1630 nM in assay [2] (setting [3]) and 2300 nM in assay [2] (setting [4]). For the same molecule, the Emax in assay [2] (without co-corrector) stood at 756%.

`COc1ccc(C)cc1[C@]1(C(=O)NS(=O)(=O)c2cccc3nc(C)ccc23)C[C@@H](c2ccccc2)CO1` [Example 36, (2S,4S)-2-(2-methoxy-5-methylphenyl)-N-(2-methylquinoline-5-sulfonyl)-4-phenyloxolane-2-carboxamide]: in assay [1], the “Emax (% Dual)” value turned out to be 255 % Dual. In addition, the values for the EC50 in assay [1], in assay [2] (setting [3]) and in assay [2] (setting [4]) were 31 nM, 810 nM and 1590 nM, respectively. The Emax in assay [2] (without co-corrector) amounted to 443%.

Regarding `COc1ccc(C)cc1[C@]1(C(=O)NS(=O)(=O)c2cccc3nc(C)ccc23)C[C@H](c2ccccc2)CO1` [Example 37, (2S,4R)-2-(2-methoxy-5-methylphenyl)-N-(2-methylquinoline-5-sulfonyl)-4-phenyloxolane-2-carboxamide], in assay [1], the “Emax (% Dual)” value is reported as 305 % Dual. Besides, the values for the EC50 in assay [1], in assay [2] (setting [3]) and in assay [2] (setting [4]) were 38.3 nM, 3210 nM and 3630 nM, respectively. In addition, in assay [2] (with co-corrector 2 μM), the “Maximum % activity (with co-corrector)” value is listed as 573%. Also, the Emax in assay [2] (without co-corrector) is 217%.

As for `COc1ccccc1[C@H]1CO[C@@](C(=O)NS(=O)(=O)c2cccc3nc(C)ccc23)(c2cc(C)ccc2OC)C1` [Example 38, (2R,4S)-2-(2-methoxy-5-methylphenyl)-4-(2-methoxyphenyl)-N-(2-methylquinoline-5-sulfonyl)oxolane-2-carboxamide], in assay [1], the “Emax (% Dual)” value came out at 244 % Dual. Further, the EC50 in assay [1] is 14.1 nM; in assay [2] (setting [3]), 330 nM; in assay [2] (setting [4]), 980 nM. For the same molecule, the Emax in assay [2] (without co-corrector) turned out to be 679%.
